Data: US20250382305A1 (PTC THERAPEUTICS, INC., priority 2022, published 2025)

Experiments:
ATXN3 pre-mRNA = test: RT-qPCR Assay to Quantify Exon 4 Skipping in ATXN3 pre-mRNA in Cells; type: cell-based; details: percent exon 4 skipping in ATXN3 pre-mRNA, RT-qPCR of cell lysates; average IC50
In short: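 Cells plated at 10,000/well onto a 7-point, 3.16-fold DMSO dilution series (duplicates), incubated 24 h at 37 °C, then lysed. Exon 4 skipping measured by one-step RT-qPCR (48 °C RT, 40 cycles); IC50 interpolated from dose-response fit of percent skipping.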

[1] = system: Total ATXN3 (tATXN3) protein; test: Endogenous Total ATXN3 (tATXN3) Protein Assay (MSD immunoassay of cell lysates); type: cell-based; details: average IC50, total ATXN3 protein in cell lysate after 48 h with compound (Table 1)
In short: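 Cells in DMEM/10% FBS were plated at 10,000 per well onto 7-point, 3.16-fold compound dilutions in duplicate for 48 h at 37° C, then lysed. Total ATXN3 in lysates was measured by MSD sandwich immunoassay: mouse anti-ATXN3 capture, rabbit anti-ATXN3 detection, SULFO-TAG anti-rabbit. Average IC50 was reported in star bins.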

| IC50 (ATXN3 pre-mRNA) [nM] | IC50 [1] [nM] | Compound |
| --- | --- | --- |
| > 1000 | > 1000 | N[C@@H]1CCCCCC[C@H]1c1sc2c(NCc3cccs3)cc(Cl)nc2c1I [Compound 123, 2-((1R,2R)-2-aminocyclooctyl)-5-chloro-3-iodo-N-(thiophen-2-ylmethyl)thieno[3,2-b]pyridin-7-amine] |
| ≤ 30 | ≤ 30 | Cc1c([C@H]2CC=CC[C@@H]2N)sc2c(NCc3ccncc3)nc(Cl)nc12 [Compound 234, 6-((1S,6S)-6-aminocyclohex-3-en-1-yl)-2-chloro-7-methyl-N-(pyridin-4-ylmethyl)thieno[3,2-d]pyrimidin-4-amine] |
| 30 to 300 | 30 to 300 | Cc1c([C@H]2CC=C(C(N)=O)C[C@@H]2N)sc2c(NCc3cccs3)cc(Cl)nc12 [Compound 274, (4S,5S)-5-amino-4-(5-chloro-3-methyl-7-((thiophen-2-ylmethyl)amino)thieno[3,2-b]pyridin-2-yl)cyclohex-1-ene-1-carboxamide] |
| 30 to 300 | 30 to 300 | N[C@@H]1CC=CC[C@H]1c1sc2c(NCc3ccco3)cc(Cl)nc2c1Cl [Compound 299, 2-((1R,6R)-6-aminocyclohex-3-en-1-yl)-3,5-dichloro-N-(furan-2-ylmethyl)thieno[3,2-b]pyridin-7-amine] |
| 30 to 300 | 30 to 300 | CN(Cc1ccco1)c1cc(Cl)nc2c(C#CCCCO)c([C@@H]3CC=CC[C@H]3N)sc12 [Compound 452, 5-(2-((1R,6R)-6-aminocyclohex-3-en-1-yl)-5-chloro-7-((furan-2-ylmethyl)(methyl)amino)thieno[3,2-b]pyridin-3-yl)pent-4-yn-1-ol] |
| ≤ 30 | ≤ 30 | N[C@H]1CCC[C@@H]1c1sc2c(NCc3cccs3)cc(Cl)nc2c1Cl [Compound 1, 2-((1S,2S)-2-aminocyclopentyl)-3,5-dichloro-N-(thiophen-2-ylmethyl)thieno[3,2-b]pyridin-7-amine] |
| > 1000 | > 1000 | N[C@@H]1CCC[C@H]1c1sc2c(NCc3cccs3)cc(Cl)nc2c1-c1ccccc1 [Compound 135, 2-((1R,2R)-2-aminocyclopentyl)-5-chloro-3-phenyl-N-(thiophen-2-ylmethyl)thieno[3,2-b]pyridin-7-amine] |
| 30 to 300 | 30 to 300 | N[C@@H]1CC=CC[C@H]1c1sc2c(NCc3ccco3)cc(Cl)nc2c1Br [Compound 310, 2-((1R,6R)-6-aminocyclohex-3-en-1-yl)-3-bromo-5-chloro-N-(furan-2-ylmethyl)thieno[3,2-b]pyridin-7-amine] |
| ≤ 30 | ≤ 30 | N[C@H]1CC=CC[C@@H]1c1sc2c(NCc3ccccc3)nc(Cl)nc2c1Br [Compound 241, 6-((1S,6S)-6-aminocyclohex-3-en-1-yl)-N-benzyl-7-bromo-2-chlorothieno[3,2-d]pyrimidin-4-amine] |
| 30 to 300 | 30 to 300 | CN(Cc1cccs1)c1cc(Cl)nc2c(C#CCCCO)c([C@H]3CC=CC[C@@H]3N)sc12 [Compound 349, 5-(2-((1S,6S)-6-aminocyclohex-3-en-1-yl)-5-chloro-7-(methyl(thiophen-2-ylmethyl)amino)thieno[3,2-b]pyridin-3-yl)pent-4-yn-1-ol] |
| 30 to 300 | 30 to 300 | N[C@@H]1CC=CC[C@H]1c1sc2c(NCc3ccncc3F)cc(Cl)nc2c1Cl [Compound 376, 2-((1R,6R)-6-aminocyclohex-3-en-1-yl)-3,5-dichloro-N-((3-fluoropyridin-4-yl)methyl)thieno[3,2-b]pyridin-7-amine] |

The next lines start with the compound.

| Compound | IC50 (ATXN3 pre-mRNA) [nM] | IC50 [1] [nM] |
| --- | --- | --- |
| N[C@H]1CCOC[C@@H]1c1sc2c(NCc3ccco3)cc(Cl)nc2c1Cl [Compound 174, 2-((3R,4S)-4-aminotetrahydro-2H-pyran-3-yl)-3,5-dichloro-N-(furan-2-ylmethyl)thieno[3,2-b]pyridin-7-amine] | ≤ 30 | ≤ 30 |
| 2-((1R,6R)-6-aminocyclohex-3-en-1-yl)-3-bromo-5-chloro-N-(cyclopent-1-en-1-ylmethyl)thieno[3,2-b]pyridin-7-amine and 2-((1S,6S)-6-aminocyclohex-3-en-1-yl)-3-bromo-5-chloro-N-(cyclopent-1-en-1-ylmethyl)thieno[3,2-b]pyridin-7-amine [Compound 332] | 30 to 300 | 30 to 300 |
| N[C@@H]1CCCC[C@H]1c1sc2c(NCc3cccs3)cc(Cl)nc2c1Cl (single isomer, unassigned) [Compound 36, 2-((1R,2R)-2-aminocyclohexyl)-3,5-dichloro-N-(thiophen-2-ylmethyl)thieno[3,2-b]pyridin-7-amine or 2-((1S,2S)-2-aminocyclohexyl)-3,5-dichloro-N-(thiophen-2-ylmethyl)thieno[3,2-b]pyridine-7-amine] | > 1000 | > 1000 |
| Cc1c([C@@H]2CCC[C@H](F)[C@H]2N)sc2c(NCc3cccs3)cc(Cl)nc12.Cc1c([C@H]2CCC[C@@H](F)[C@@H]2N)sc2c(NCc3cccs3)cc(Cl)nc12 (mixture of isomers) [Compound 342, 2-((1R,2S,3S)-2-amino-3-fluorocyclohexyl)-5-chloro-3-methyl-N-(thiophen-2-ylmethyl)thieno[3,2-b]pyridin-7-amine and 2-((1S,2R,3R)-2-amino-3-fluorocyclohexyl)-5-chloro-3-methyl-N-(thiophen-2-ylmethyl)thieno[3,2-b]pyridin-7-amine] | 30 to 300 | 30 to 300 |
| N[C@H]1CC=CC[C@@H]1c1sc2c(NCc3cccs3)cc(Cl)nc2c1Cl [Compound 196, 2-((1S,6S)-6-aminocyclohex-3-en-1-yl)-3,5-dichloro-N-(thiophen-2-ylmethyl)thieno[3,2-b]pyridin-7-amine] | ≤ 30 | ≤ 30 |
| C#Cc1c([C@@H]2CCOC[C@H]2N)sc2c(NCc3ccco3)nc(Cl)nc12.C#Cc1c([C@H]2CCOC[C@@H]2N)sc2c(NCc3ccco3)nc(Cl)nc12 (mixture of isomers) [Compound 330, 6-((3R,4S)-3-aminotetrahydro-2H-pyran-4-yl)-2-chloro-7-ethynyl-N-(furan-2-ylmethyl)thieno[3,2-d]pyrimidin-4-amine and 6-((3S,4R)-3-aminotetrahydro-2H-pyran-4-yl)-2-chloro-7-ethynyl-N-(furan-2-ylmethyl)thieno[3,2-d]pyrimidin-4-amine] | 30 to 300 | 30 to 300 |
| Cc1c([C@@H]2OCCC[C@H]2N)sc2c(NCc3ccco3)nc(Cl)nc12 [Compound 61, 6-((2R,3R)-3-aminotetrahydro-2H-pyran-2-yl)-2-chloro-N-(furan-2-ylmethyl)-7-methylthieno[3,2-d]pyrimidin-4-amine] | > 1000 | > 1000 |
| N[C@H]1CCCC[C@@H]1c1sc2c(NCc3ccccc3)cc(Cl)nc2c1Cl [Compound 237, 2-((1S,2S)-2-aminocyclohexyl)-N-benzyl-3,5-dichlorothieno[3,2-b]pyridin-7-amine] | ≤ 30 | ≤ 30 |
| N[C@@H]1CCC[C@H]1c1sc2c(NCc3ccccc3)cc(Cl)nc2c1Cl [Compound 167, 2-((1R,2R)-2-aminocyclopentyl)-N-benzyl-3,5-dichlorothieno[3,2-b]pyridin-7-amine] | 30 to 300 | 300 to 1000 |
| 2-((1R,2R)-2-aminocyclohexyl)-5-chloro-3-methyl-N-(thiophen-2-ylmethyl)thieno[3,2-b]pyridin-7-amine or 2-((1S,2S)-2-aminocyclohexyl)-5-chloro-3-methyl-N-(thiophen-2-ylmethyl)thieno[3,2-b]pyridine-7-amine [Compound 35] | 300 to 1000 | 300 to 1000 |
